Measured values taken from patent publication US20060147922A1, “Novel diagnostic and therapeutic methods and reagents therefor” (priority 2002, published 2006).
Entries after “also recorded” stand apart in the source; their conditions may differ. Each block holds one compound with its values, some of them ahead of it. Where no end group is shown, it is not given here. [ ]: non-standard residue; d: D form. pT = C[C@@H](OP(=O)(O)O)[C@H](N)C(=O)O

Legend:
PR(CDE) = biological target: T1, PR(CDE) (Homo sapiens, UniProt P06401); experiment: GST-PR(CDE) pull-down of in vitro translated EDDF1 or SRC-1; type: binding; details: in vitro assays (data not shown)
T1 construct: PR(CDE) (aa 456-933) regions into pGEX4T2 for GST fusion protein expression; made in house; host or cells: GST fusion from E. coli BL21; EDDF1 / SRC-1 by coupled in vitro transcription/translation (TNT Quick, Promega)
T1 sequence (P06401 456-933): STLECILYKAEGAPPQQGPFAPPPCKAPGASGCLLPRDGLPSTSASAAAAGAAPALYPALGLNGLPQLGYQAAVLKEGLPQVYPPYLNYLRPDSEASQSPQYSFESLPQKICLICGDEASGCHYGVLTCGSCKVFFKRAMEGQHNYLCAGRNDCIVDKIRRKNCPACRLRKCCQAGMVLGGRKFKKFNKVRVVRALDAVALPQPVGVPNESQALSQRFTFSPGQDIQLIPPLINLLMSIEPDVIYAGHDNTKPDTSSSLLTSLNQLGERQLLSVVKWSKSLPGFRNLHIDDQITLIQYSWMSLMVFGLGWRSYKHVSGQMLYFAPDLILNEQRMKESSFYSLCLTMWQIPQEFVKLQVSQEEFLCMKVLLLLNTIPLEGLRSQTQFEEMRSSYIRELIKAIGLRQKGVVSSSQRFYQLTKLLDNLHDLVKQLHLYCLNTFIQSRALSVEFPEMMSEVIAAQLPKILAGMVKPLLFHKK

PR B = biological target: T2, PR B (Homo sapiens, UniProt P06401); experiment: Nuclear receptor transactivation assay (MMTV-luciferase reporter); type: cell-based; details: HEK 293 cells, 24 h
T2 sequence (P06401 1-933): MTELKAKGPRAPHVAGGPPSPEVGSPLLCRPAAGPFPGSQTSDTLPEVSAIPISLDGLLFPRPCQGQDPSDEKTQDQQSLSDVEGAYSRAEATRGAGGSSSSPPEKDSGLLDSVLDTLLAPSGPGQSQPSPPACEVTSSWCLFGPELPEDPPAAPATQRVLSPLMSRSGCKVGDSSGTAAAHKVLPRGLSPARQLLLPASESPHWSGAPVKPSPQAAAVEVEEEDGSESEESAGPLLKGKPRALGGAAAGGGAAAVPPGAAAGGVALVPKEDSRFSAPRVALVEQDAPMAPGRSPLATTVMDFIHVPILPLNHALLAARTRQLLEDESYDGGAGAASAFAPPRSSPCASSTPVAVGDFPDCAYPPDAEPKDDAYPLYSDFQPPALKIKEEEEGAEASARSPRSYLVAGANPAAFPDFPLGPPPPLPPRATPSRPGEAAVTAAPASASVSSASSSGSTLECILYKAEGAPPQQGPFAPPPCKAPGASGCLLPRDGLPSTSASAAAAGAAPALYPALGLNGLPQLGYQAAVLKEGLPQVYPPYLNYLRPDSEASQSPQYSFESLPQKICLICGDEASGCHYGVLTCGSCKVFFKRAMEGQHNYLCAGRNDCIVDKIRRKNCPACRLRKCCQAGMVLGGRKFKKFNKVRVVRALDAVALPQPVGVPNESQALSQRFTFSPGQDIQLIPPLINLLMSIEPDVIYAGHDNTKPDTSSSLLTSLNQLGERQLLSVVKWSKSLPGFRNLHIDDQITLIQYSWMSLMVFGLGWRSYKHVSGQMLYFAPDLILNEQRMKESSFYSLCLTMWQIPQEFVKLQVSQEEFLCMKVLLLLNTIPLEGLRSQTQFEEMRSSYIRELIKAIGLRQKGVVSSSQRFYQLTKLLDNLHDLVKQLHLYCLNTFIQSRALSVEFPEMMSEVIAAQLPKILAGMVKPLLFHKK
Method: (D) Effect of EDD on response to the synthetic progestin ORG2058. HEK 293 cells were transfected for reporter assay along with a transfection control plasmid (pRL-TK). Cells were harvested for luciferase assay following 24 h treatment with increasing concentrations of ORG2058.
HEK 293 or COS7 cells were plated in 6-well plates (2×10^5 cells/well) and the medium changed to 2% charcoal-stripped FCS the following day. Transfection was carried out using 3-4 μl Fugene 6 Reagent (Roche) with 1-2 μg DNA comprised of 90 ng receptor expression vector, 450 ng luciferase reporter vector and 1.2 μg EDD, EDDM or SRC-1 cDNAs in either pRcCMV or pSG5, or empty vector, and 200 ng GFP expression vector pGFP20. […] In some experiments cell number was monitored using the CellTiter96® Proliferation Assay (Promega Corp., Madison, USA). Cells in 6-well plates were analysed for GFP expression by fluorescence microscopy to determine transfection efficiency and also used for preparation of protein lysates so that protein expression levels of various constructs could be compared. […] In some experiments pRSV-β-gal or pRL-TK (Promega Corp., Madison, USA) vectors were transfected in place of pGFP20 and transfection efficiency monitored by assaying for β-galactosidase or Renilla luciferase activity respectively.

BRCA2-chk2 interaction = experiment: chk2 immunoprecipitation, western blot for BRCA2, from MCF-7 nuclear extracts after DNA damaging agents; type: cell-based, human; details: phleomycin or hydroxyurea
Source text: (§1) (B) Interactions between EDD, BRCA2 and chk2 are modified in response to DNA damaging agents. Nuclear extracts from MCF-7 cells that had been cultured in the presence of the radiomimetic phleomycin or the UV mimic hydroxyurea (HU), or from control MCF-7 cells, were subjected to immunoprecipitation with polyclonal chk2 antibody (N17). Following precipitation of immune complexes and extensive washing, bound proteins were separated by SDS-PAGE and western blotted for EDD, BRCA2 or chk2.
(§2) MCF-7 cells were incubated in RPMI containing 0.5% foetal bovine serum for 18 h before addition of phleomycin (Cayla, France) at 100 μg/ml, hydroxyurea (Calbiochem, CA, USA) at 2 mM or PBS vehicle, for 6 h. Cells were harvested for total protein or nuclear protein extracts as described above.

EDD-chk2 interaction = experiment: chk2 immunoprecipitation / GSTchk2-N pull-down of EDD from MCF-7 nuclear extracts after DNA damaging agents; type: cell-based, human; details: for amount of EDD associating with chk2: MCF-7 nuclear extracts, phleomycin 100 μg/ml or hydroxyurea 2 mM
Method: Nuclear extracts from MCF-7 cells that had been cultured in the presence of the radiomimetic phleomycin (100 μg per ml) or from control MCF-7 cells were immunoprecipitated with polyclonal CHK2 antibody (N17) or incubated with goat IgG as a negative control. Following precipitation of immune complexes and extensive washing, bound proteins were separated by SDS-PAGE and western blofted for EDD or CHK2.
(C) Nuclear extracts from MCF-7 cells that had been cultured in the presence of phleomycin (100 μg per ml) or from control MCF-7 cells were incubated with GSTCHK2-N or with GST alone bound to glutathione-Sepharose beads. Bound proteins were separated by SDS-PAGE and immunoblotted for EDD and GST.
as §1, §2

chk2 FHA domain = biological target: T3, chk2 FHA domain (Homo sapiens, UniProt O96017); experiment: GSTchk2-N pull-down of in vitro translated EDD in presence of FHA-binding phosphopeptide; details: pre-incubation of GSTchk2-N fusion protein with peptide
T3 construct: made in house; host or cells: GST fusion from E. coli BL21; EDDF5 by coupled in vitro transcription/translation (TNT Quick, Promega)
T3 sequence (O96017 1-225): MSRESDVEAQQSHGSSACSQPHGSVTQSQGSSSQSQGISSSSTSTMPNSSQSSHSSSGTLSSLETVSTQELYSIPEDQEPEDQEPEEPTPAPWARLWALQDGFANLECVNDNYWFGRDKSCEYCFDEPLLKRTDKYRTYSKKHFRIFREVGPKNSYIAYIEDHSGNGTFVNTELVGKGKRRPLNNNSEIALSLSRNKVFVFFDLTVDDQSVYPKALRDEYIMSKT
Method: (D) The phosphopeptide-binding interface of the chk2 FHA domain is required for EDD binding. In vitro translated ^35S-labelled EDD derivative EDDF5 (aa 889-2799) was incubated with GSTchk2-N or GSTchk2-N derivatives containing R117A or I157T substitutions, or with GST alone bound to glutathione-Sepharose beads. The incubations with GSTchk2-N or GSTchk2-N(I157T) were carried out in the presence or absence of an FHA-binding phosphopeptide at 0, 80 or 150 μM. Bound EDD was detected by SDS-PAGE and autoradiography.
GST-tagged fusion proteins were prepared from E. coli strain BL21 according to established protocols (Pharmacia Protocol Handbook). Soluble fusion proteins were bound to glutathione agarose and quantitated via Coomassie blue staining against protein standards. 35S-labelled EDD protein and mutants or SRC-1 were synthesised in a coupled in vitro transcription/translation system (TNT Quick, Promega) and 10-20 μl reaction mixture was diluted in 1% Triton X-100 lysis buffer (Callaghan et al, Oncogene 17, 3479-3491, 1998) and incubated with 5 μg of GST, GST-importin α5, GST-PR(CDE) or GST-CIB coupled to glutathione agarose beads at 4° C. for 2 h. Beads were collected by centrifugation, washed extensively in lysis buffer and resuspended in SDS-PAGE sample buffer. After boiling, bound protein was visualised following SDS-PAGE and autoradiography. […]

EDD-CIB interaction = experiment: GST-CIB pull-down of EDD from MCF-7 nuclear extracts after DNA damaging agents; type: cell-based, human
Method: (D) Interaction of EDD and CIB in HEK 293 and MCF-7 cells. Left, HEK 293 cells overexpressing mutant EDD were transfected with a plasmid encoding Flag-tagged CIB or empty vector (vec). Extracts from these cells were subjected to immunoprecipitation using anti-FLAG Ab M2. Right, nuclear extracts prepared from MCF-7 cells following treatment with DNA damage agents phleomycin (Phleo) or hydroxyurea (HU) were incubated with either GST or GST-CIB fusion protein bound to glutathione-Sepharose beads. Bound proteins from both procedures were analysed by SDS-PAGE and western blotted for EDD and amounts bound are indicated as percentages relative to input.
For GST fusion protein pull-down of endogenous or recombinant EDD from cell lysates, 0.5 to 1 mg total protein was incubated with 5 μg GST or GST fusion protein bound to glutathione beads for 1-2 h at 4° C. Beads were washed extensively in 1% Triton X-100 lysis buffer and bound proteins resolved by SDS-PAGE and detected by immunoblotting with EDD antisera (Callaghan et al, Oncogene 17, 3479-3491, 1998). For immunoprecipitation, 10 μl importin α5 antisera (Peter Palese, Mount Sinai School of Medicine) was incubated with 0.5 to 1 mg cell lysate (4° C. for 1 h). Antibody conjugates were captured on protein A sepharose beads (4° C. for 1 h) and washed extensively in lysis buffer. […]

Compound: CCC1CC2C3CCC4=CC(=O)CCC4C3CCC2(C)C1C(=O)CO (centres unmarked) [ORG2058]
- effect of PR ligand on interactions between PR(CDE) and SRC-1 or EDDF1 (PR(CDE)): not affected
- ORG2058 concentration at which that maximal response was exceeded (PR B; with EDD overexpression): 100 pM
- ORG2058 concentration giving maximal response (luciferase activity) (PR B; without EDD transfection): 10 nM

Compound: NC(=O)NO [hydroxyurea]
- amount of BRCA2 associated with chk2 (BRCA2-chk2 interaction): considerably reduced
- amount of EDD associating with chk2 (EDD-chk2 interaction): no effect on the association with EDD

- peptide concentration that abolished binding between EDD and chk2-N (chk2 FHA domain): greater than 50 μM
Compound: RWFDT(P)YLIRR: phosphopeptide that binds strongly to the FHA domain (RWFD[pT]YLIRR)

Compound: phleomycin
- amount of BRCA2 associated with chk2 (BRCA2-chk2 interaction): no effect on the amount of BRCA2 associated with chk2
- EDD protein levels (EDD-CIB interaction; MCF-7 cells after treatment): unchanged
- association between EDD and CIB (EDD-CIB interaction; MCF-7 cells, phleomycin 100 μg/ml 6 h, vs untreated or hydroxyurea-treated cells): significantly less association between EDD and CIB; also recorded: decrease in the amount of associating EDD
- mobility and levels of EDD protein (EDD-chk2 interaction; MCF-7 nuclear extracts after treatment): no change in either the mobility or levels of EDD protein
- amount of EDD associating with chk2 (EDD-chk2 interaction): considerably reduced; also recorded: diminished; also recorded: Decreased association between EDD and CHK2
